Literature values in patent US20140186456A1, “Tripartite Bioactive Composition Providing Anti-Oxidant and Anti-Inflammatory Effects with Immune System and Stem Cell Production Enhancement” (priority 2011, published 2014).

System: organisms and animal species

In the case of `Oc1ccc(/C=C/c2cc(O)cc(O)c2)cc1` [resveratrol, 3,5,4′-trihydroxy-trans-stilbene], the increase of lifespan is listed as 20-40%.
